Our source for the IC50 values is patent US12421229B2, “Hydropyrido[1,2-α]pyrazine compounds for the treatment of autoimmune disease” (Hoffmann-La Roche Inc., priority 2019, dated 2025).

For this assay, the target named is T1, human TLR9 (Homo sapiens, UniProt Q9NR96).
T1 construct: host or cells: HEK293 (HEK-Blue hTLR9)
T1 sequence (Q9NR96 26-1032): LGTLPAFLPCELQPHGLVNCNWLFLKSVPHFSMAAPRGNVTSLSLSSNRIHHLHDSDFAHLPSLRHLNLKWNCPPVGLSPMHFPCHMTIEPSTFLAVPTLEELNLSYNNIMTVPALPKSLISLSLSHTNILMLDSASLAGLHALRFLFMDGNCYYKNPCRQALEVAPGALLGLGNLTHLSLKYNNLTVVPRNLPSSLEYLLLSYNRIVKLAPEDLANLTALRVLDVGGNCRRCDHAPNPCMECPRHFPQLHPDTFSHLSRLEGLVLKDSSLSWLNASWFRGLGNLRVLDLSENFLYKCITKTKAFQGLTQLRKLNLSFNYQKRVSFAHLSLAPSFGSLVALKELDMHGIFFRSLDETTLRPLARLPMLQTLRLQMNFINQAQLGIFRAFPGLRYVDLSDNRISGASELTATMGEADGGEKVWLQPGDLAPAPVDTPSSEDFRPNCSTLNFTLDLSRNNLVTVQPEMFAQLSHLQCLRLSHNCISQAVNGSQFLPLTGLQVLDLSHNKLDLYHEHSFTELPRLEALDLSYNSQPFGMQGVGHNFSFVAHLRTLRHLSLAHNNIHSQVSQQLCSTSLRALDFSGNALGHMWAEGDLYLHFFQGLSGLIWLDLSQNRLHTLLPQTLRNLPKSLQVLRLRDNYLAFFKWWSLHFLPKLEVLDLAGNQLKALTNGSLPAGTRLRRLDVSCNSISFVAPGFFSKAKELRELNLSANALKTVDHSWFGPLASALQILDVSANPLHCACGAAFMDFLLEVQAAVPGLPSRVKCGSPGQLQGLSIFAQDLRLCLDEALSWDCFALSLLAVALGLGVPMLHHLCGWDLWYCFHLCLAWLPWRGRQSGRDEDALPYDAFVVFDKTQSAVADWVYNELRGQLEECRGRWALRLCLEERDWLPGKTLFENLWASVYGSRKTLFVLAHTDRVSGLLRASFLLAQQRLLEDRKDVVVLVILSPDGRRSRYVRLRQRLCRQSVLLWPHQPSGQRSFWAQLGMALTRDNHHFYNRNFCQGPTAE
In words: HEK293-Blue-hTLR-9 cells assay. Format: cell-based. The conditions noted are these: HEK293-Blue-hTLR9 cells, ODN2006 stimulation, 20 hrs, SEAP reporter; read-out: HEK/hTLR9 IC50. The source says:
A stable HEK293-Blue-hTLR-9 cell line was purchased from InvivoGen (Cat. #: hkb-htlr9, San Diego, California, USA). These cells were originally designed for studying the stimulation of human TLR9 by monitoring the activation of NF-κB. A SEAP (secreted embryonic alkaline phosphatase) reporter gene was placed under the control of the IFN-β minimal promoter fused to five NF-κB and AP-1-binding sites. The SEAP was induced by activating NF-κB and AP-1 via stimulating HEK-Blue hTLR9 cells with TLR9 ligands. Therefore the reporter expression was declined by TLR9 antagonist under the stimulation of a ligand, such as ODN2006 (Cat. #: tlrl-2006-1, Invivogen, San Diego, California, USA), for incubation of 20 hrs. The cell culture supernatant SEAP reporter activity was determined using QUANTI-Blue™ kit (Cat. #: rep-qb1, Invivogen, San Diego, California, USA) at a wavelength of 640 nm, a detection medium that turns purple or blue in the presence of alkaline phosphatase.
HEK293-Blue-hTLR9 cells were incubated at a density of 250,000˜450,000 cells/mL in a volume of 170 μL in a 96-well plate in Dulbecco's Modified Eagle's medium (DMEM) containing 4.5 g/L glucose, 50 U/mL penicillin, […], 2 mM L-glutamine, 10% (v/v) heat-inactivated fetal bovine serum with addition of 20 μL test compound in a serial dilution in the presence of final DMSO at 1% and 10 μL of 20 uM ODN2006 in above DMEM, perform incubation under 37° C. in a CO2 incubator for 20 hrs. Then 20 μL of the supernatant from each well was incubated with 180 μL Quanti-blue substrate solution at 37° C. for 2 h and the absorbance was read at 620˜655 nm using a spectrophotometer. The signaling pathway that TLR9 activation leads to downstream NF-κB activation has been widely accepted, and therefore similar reporter assay was modified for evaluating TLR9 antagonist.

SMILES strings stand for the structures. Some results are limits rather than exact numbers.

Turning to `CO[C@H]1CN(c2ccc([C@@H]3CCN4[C@@H](C3)CN(c3ccc(C#N)c5ncccc35)C[C@H]4C)cn2)C[C@@H]1N` [Example 6, 5-[(4R,8R,9aS)-8-[6-[(3S,4S)-3-amino-4-methoxy-pyrrolidin-1-yl]-3-pyridyl]-4-methyl-1,3,4,6,7,8,9,9a-octahydropyrido[1,2-a]pyrazin-2-yl]quinoline-8-carbonitrile], the IC50 is 87 nM.

As for `C[C@@H]1CN(c2ccc(C#N)c3ncccc23)C[C@@H]2C[C@H](c3ccc([C@@H]4CNCCO4)cc3)CCN21` [Example 27, 5-[(4R,8R,9aS)-4-methyl-8-[4-[(2R)-morpholin-2-yl]phenyl]-1,3,4,6,7,8,9,9a-octahydropyrido[1,2-a]pyrazin-2-yl]quinoline-8-carbonitrile], the IC50 amounted to 72 nM.

As for `C[C@@H]1CN(c2ccc(C#N)c3ncccc23)C[C@@H]2C[C@@H](Oc3cnc(N4CCNCC4)nc3)CCN21` [Example 18, 5-[(4R,8S,9aS)-4-methyl-8-(2-piperazin-1-ylpyrimidin-5-yl)oxy-1,3,4,6,7,8,9,9a-octahydropyrido[1,2-a]pyrazin-2-yl]quinoline-8-carbonitrile], the IC50 came to 60 nM.

Consider `C[C@@H]1CN(c2ccc(C#N)c3ncccc23)C[C@@H]2C[C@H](c3ccc(N4C[C@@H](N)[C@@H](F)C4)nc3)CCN21` [Example 19, 5-[(4R,8R,9aS)-8-[6-[(3R,4S)-3-amino-4-fluoro-pyrrolidin-1-yl]-3-pyridyl]-4-methyl-1,3,4,6,7,8,9,9a-octahydropyrido[1,2-a]pyrazin-2-yl]quinoline-8-carbonitrile], for which the IC50 was determined as 82 nM.

Regarding `CO[C@@H]1CN(c2ccc([C@@H]3CCN4[C@@H](C3)CN(c3ccc(C#N)c5ncccc35)C[C@H]4C)cn2)C[C@@H]1N` [Example 13, 5-[(4R,8R,9aS)-8-[6-[(3S,4R)-3-amino-4-methoxy-pyrrolidin-1-yl]-3-pyridyl]-4-methyl-1,3,4,6,7,8,9,9a-octahydropyrido[1,2-a]pyrazin-2-yl]quinoline-8-carbonitrile], the IC50 was 94 nM.

As for `C[C@@H]1CN(c2ccc(C#N)c3ncccc23)C[C@@H]2C[C@H](N3CC(c4ccc(N5CCNCC5)cc4)C3)CCN21` [Example 9, 5-[(4R,8R,9aS)-4-methyl-8-[3-(4-piperazin-1-ylphenyl)azetidin-1-yl]-1,3,4,6,7,8,9,9a-octahydropyrido[1,2-a]pyrazin-2-yl]quinoline-8-carbonitrile], the IC50 was less than 32 nM.

As to `CO[C@H]1CN(c2ccc([C@@H]3CCN4[C@@H](C3)CN(c3ccc(C#N)c5ncccc35)C[C@H]4C)cn2)C[C@H]1N` [Example 12, 5-[(4R,8R,9aS)-8-[6-[(3R,4S)-3-amino-4-methoxy-pyrrolidin-1-yl]-3-pyridyl]-4-methyl-1,3,4,6,7,8,9,9a-octahydropyrido[1,2-a]pyrazin-2-yl]quinoline-8-carbonitrile], the IC50 is 66 nM.

With `C[C@@H]1CN(c2ccc(C#N)c3ncccc23)C[C@@H]2C[C@H](c3ccc(N4CCOC[C@@H](N)C4)nc3)CCN21` [Example 23, 5-[(4R,8R,9aS)-8[6-[(6S)-6-amino-1,4-oxazepan-4-yl]-3-pyridyl]-4-methyl-1,3,4,6,7,8,9,9a-octahydropyrido[1,2-a]pyrazin-2-yl]quinoline-8-carbonitrile], the IC50 was determined as 75 nM.

With `[2H]c1ccc2c(N3C[C@@H]4C[C@H](Nc5ccc(C[C@@H]6CNCCO6)cc5)CCN4[C@H](C)C3)ccc(C#N)c2n1` [Example 22, 5-[(4R,8R,9aS)-4-methyl-8-[4-[[(2R)-morpholin-2-yl]methyl]anilino]-1,3,4,6,7,8,9,9a-octahydropyrido[1,2-a]pyrazin-2-yl]-2-deuterio-quinoline-8-carbonitrile], the IC50 stood at 84 nM.

`C[C@@H]1CN(c2ccc(C#N)c3ncccc23)C[C@@H]2C[C@@H](Oc3ccc(N4CCNCC4)cn3)CCN21` [Example 11, 5-[(4R,8S,9aS)-4-methyl-8-[(5-piperazin-1-yl-2-pyridyl)oxy]-1,3,4,6,7,8,9,9a-octahydropyrido[1,2-a]pyrazin-2-yl]quinoline-8-carbonitrile]: the IC50 is 90 nM.

`C[C@@H]1CN(c2ccc(C#N)c3ncccc23)C[C@@H]2C[C@@H](c3ccc(CC4CNCCO4)cc3)CCN21` (stereo partly drawn) [Example 26, 5-[(4R,8S,9aS)-4-methyl-8-[4-(morpholin-2-ylmethyl)phenyl]-1,3,4,6,7,8,9,9a-octahydropyrido[1,2-a]pyrazin-2-yl]quinoline-8-carbonitrile]: the IC50 turned out to be 95 nM.

Take `C[C@@H]1CN(c2ccc(C#N)c3ncccc23)C[C@@H]2CC(c3ccc(C[C@@H]4CNCCO4)cc3)CCN21` (stereo in doubt) [Example 25, 5-[(4R,8R,9aS)-4-methyl-8-[4-[[(2R)-morpholin-2-yl]methyl]phenyl]-1,3,4,6,7,8,9,9a-octahydropyrido[1,2-a]pyrazin-2-yl]quinoline-8-carbonitrile]: the IC50 amounted to 78 nM.

As for `[2H]c1ccc2c(N3C[C@@H]4C[C@H](N5CCN(c6ccncc6)CC5)CCN4[C@H](C)C3)ccc(C#N)c2n1` [Example 37, 5-[(4R,8R,9aS)-4-methyl-8-[4-(4-pyridyl)piperazin-1-yl]-1,3,4,6,7,8,9,9a-octahydropyrido[1,2-a]pyrazin-2-yl]-2-deuterio-quinoline-8-carbonitrile], the IC50 came to 34 nM.

Take `C[C@@H]1CN(c2ccc(C#N)c3ncccc23)C[C@@H]2C[C@H](Nc3ccc([C@H]4CNCCO4)cc3)CCN21` [Example 20, 5-[(4R,8R,9aS)-4-methyl-8-[4-[(2S)-morpholin-2-yl]anilino]-1,3,4,6,7,8,9,9a-octahydropyrido[1,2-a]pyrazin-2-yl]quinoline-8-carbonitrile]: the IC50 turned out to be 50 nM.

As to `C[C@@H]1CN(c2ccc(C#N)c3ncccc23)C[C@@H]2C[C@@H](Oc3cncc(N4CCNCC4)c3)CCN21` [Example 29, 5-[(4R,8S,9aS)-4-methyl-8-[(5-piperazin-1-yl-3-pyridyl)oxy]-1,3,4,6,7,8,9,9a-octahydropyrido[1,2-a]pyrazin-2-yl]quinoline-8-carbonitrile], the IC50 came to 89 nM.

Take `CO[C@@H]1CN(c2ccc([C@@H]3CCN4[C@@H](C3)CN(c3ccc(C#N)c5ncccc35)C[C@H]4C)cn2)C[C@H]1N` [Example 14, 5-[(4R,8R,9aS)-8-[6-[(3R,4R)-3-amino-4-methoxy-pyrrolidin-1-yl]-3-pyridyl]-4-methyl-1,3,4,6,7,8,9,9a-octahydropyrido[1,2-a]pyrazin-2-yl]quinoline-8-carbonitrile]: the IC50 came to 78 nM.

With `C[C@@H]1CN(c2ccc(C#N)c3ncccc23)CC2C[C@H](c3ccc(N4CCNCC4)cc3)CCN21` (stereo partly drawn) [Example 3, 5-[(4R,8R)-4-methyl-8-(4-piperazin-1-ylphenyl)-1,3,4,6,7,8,9,9a-octahydropyrido[1,2-a]pyrazin-2-yl]quinoline-8-carbonitrile], the IC50 stood at 92 nM.

Turning to `CO[C@H]1CN(c2ccc(C3CN([C@@H]4CCN5[C@@H](C4)CN(c4ccc(C#N)c6ncccc46)C[C@H]5C)C3)cc2)C[C@H]1N` [Example 32, 5-[(4R,8R,9aS)-8-[3-[4-[(3R,4S)-3-amino-4-methoxy-pyrrolidin-1-yl]phenyl]azetidin-1-yl]-4-methyl-1,3,4,6,7,8,9,9a-octahydropyrido[1,2-a]pyrazin-2-yl]quinoline-8-carbonitrile], the IC50 is 33 nM.
